Reference: patent publication US10689381B2 (priority 2017, dated 2020)
Values after ≈ are worked out from the molar mass of the structure shown. Read-outs that look alike come from different tables or passages of the source.

Tests used:
HCT116 [1] = experiment: cells; assay type: cell-based, human; settings: for potency relative to vinblastine (less potent / reduced activity): vinblastine-sensitive cell lines
Method in brief: (§1)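 Compound exposure ran 72 h at six concentrations (0–1000 nM or 0–10000 nM, duplicate) on cells plated at 30,000 cells/mL in 10% FBS DMEM. A closing 37 °C incubation took 15 min (HCT116) or 5 min (L1210).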

A549-T24 = experiment: cells; assay type: cell-based, human
Source text: (§2) 2001, 98:11737; Kavallaris et al., Brit. J. Cancer. 1999, 80:1020; and Kavallaris et al., J. Clin. Invest. 1997, 100:1282]. As a result, the comparison of cell growth inhibition of candidate drugs against A549 vs A549-T24 has been used to characterize potential resistance due to increased expression of class III β-tubulin [Goncalves et al., Proc. Natl. Acad. Sci. USA. 2001, 98:11737; Kavallaris et al., Brit. J. Cancer. 1999, 80:1020; and Kavallaris et al., J. Clin. Invest. 1997, 100:1282].

A549 = experiment: cells; assay type: cell-based, human; settings: read-out: IC50 A549
Source text: as §2

L1210 [2] = settings: Table 1, footnote b: Reported in ref. 41; cited from earlier work
L1210 [3] = experiment: cells; assay type: cell-based, mouse
Method in brief: as §1

HCT116 [4] = settings: Table 1, footnote b: Reported in ref. 41; cited from earlier work
HCT116/VM46 = experiment: cells; assay type: cell-based, human
Procedure: Compounds were tested for their cell growth inhibition of L1210 (ATCC no. CCL-219, mouse lymphocytic leukemia), HCT116 (ATCC no. CCL-247, human colorectal carcinoma), and HCT116/VM46 (a vinblastine-resistant strain of HCT116) cells in culture. A population of cells (>1×10^6 cells/mL as determined with a hemocytometer) was diluted with Dulbecco's Modified Eagle Medium (DMEM, Gibco) containing 10% fetal bovine serum (FBS, Gibco) to give a final concentration of 30,000 cells/mL. To each well of a 96-well plate (Corning® Costar®) was added 100 μL of the cell media solution with a multichannel pipet. The cultures were incubated at 37° C. in an atmosphere of 5% CO2 and 95% humidified air for 24 hours.
The test compounds were then added to the plate as follows: test compounds were diluted in DMSO to a concentration of 1 mM. 10-Fold serial dilutions in DMSO were next performed on a separate 96-well plate. Fresh culture media (100 μL) was added to each well of cells resulting in 200 μL of medium per well followed by 2 μL of each test agent. Compounds were tested in duplicate (n=2-8 times) at six concentrations between 0-1000 nM or 0-10000 nM. Following the addition of compound, cultures were incubated for an additional 72 hours.
The plates were incubated at 37° C. for 5 minutes (L1210) or 15 min (HCT116 and HCT116/VM46). After the given incubation time, 50 μL of 0.1 N NaOH was added to each well and the absorption at 405 nm was determined using a 96 well plate reader. […]

cells = assay type: cell-based, human; settings: range over L1210 and HCT116, stated in text; read-out: IC50 against vinblastine-sensitive cell lines
Method in brief: as §1

Tubulin = settings: for % displacement: Table 9, displacement of tubulin bound BODIPY-vinblastine
Procedure: Control studies were performed with BODIPY-VBL in the absence of a competitive ligand (control 1, maximum FI enhancement) and in the absence of tubulin (control 2, no FI enhancement). Percent (%) BODIPY-VBL displacement was calculated by the formula: (control 1 FI−experiment FI)/(Control 1 FI−Control 2 FI)×100%. Reported values are the average of 5 measurements±SD.

Pgp = Pgp (Homo sapiens, UniProt P08183); experiment: Drug-stimulated Pgp ATPase activity in membranes (MDR1 PREDEASY ATPase kit)
Sequence of Pgp (P08183 whole entry): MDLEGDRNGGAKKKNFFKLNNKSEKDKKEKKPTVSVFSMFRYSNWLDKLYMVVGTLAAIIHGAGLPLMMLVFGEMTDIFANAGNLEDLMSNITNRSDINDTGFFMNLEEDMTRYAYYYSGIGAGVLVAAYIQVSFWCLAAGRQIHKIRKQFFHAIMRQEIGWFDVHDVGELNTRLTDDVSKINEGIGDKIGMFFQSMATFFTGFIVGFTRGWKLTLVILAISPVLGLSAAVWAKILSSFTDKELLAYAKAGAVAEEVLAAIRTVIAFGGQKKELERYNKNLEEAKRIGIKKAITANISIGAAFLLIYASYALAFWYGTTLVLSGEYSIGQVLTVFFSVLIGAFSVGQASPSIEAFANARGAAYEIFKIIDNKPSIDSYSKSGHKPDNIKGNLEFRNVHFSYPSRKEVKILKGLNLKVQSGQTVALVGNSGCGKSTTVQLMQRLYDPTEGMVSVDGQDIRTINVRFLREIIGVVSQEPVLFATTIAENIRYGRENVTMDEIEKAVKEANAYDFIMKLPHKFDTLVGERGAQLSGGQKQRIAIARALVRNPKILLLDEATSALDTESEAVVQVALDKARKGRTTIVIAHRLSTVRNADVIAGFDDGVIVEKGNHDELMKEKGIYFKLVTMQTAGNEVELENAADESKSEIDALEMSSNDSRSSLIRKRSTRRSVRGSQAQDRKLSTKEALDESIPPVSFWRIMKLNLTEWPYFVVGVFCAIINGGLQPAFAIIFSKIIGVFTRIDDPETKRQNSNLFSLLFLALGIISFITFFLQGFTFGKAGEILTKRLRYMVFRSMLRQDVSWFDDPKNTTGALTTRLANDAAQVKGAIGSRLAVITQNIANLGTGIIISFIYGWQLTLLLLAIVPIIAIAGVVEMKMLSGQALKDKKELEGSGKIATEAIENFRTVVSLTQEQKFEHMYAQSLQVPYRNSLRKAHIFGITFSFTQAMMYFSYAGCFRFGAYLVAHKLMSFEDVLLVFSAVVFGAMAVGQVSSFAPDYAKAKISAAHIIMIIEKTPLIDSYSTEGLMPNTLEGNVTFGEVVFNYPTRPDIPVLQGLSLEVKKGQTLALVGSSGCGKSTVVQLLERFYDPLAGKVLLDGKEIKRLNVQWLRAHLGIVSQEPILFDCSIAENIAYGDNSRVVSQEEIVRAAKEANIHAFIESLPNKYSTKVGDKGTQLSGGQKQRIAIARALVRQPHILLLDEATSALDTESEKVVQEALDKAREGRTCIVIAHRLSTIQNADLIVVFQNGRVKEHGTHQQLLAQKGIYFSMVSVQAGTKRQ

[5] = Table 6, read-out: IC50 HCT116/VM46
[6] = Table 10, read-out: IC50 (nM), HCT116/VM46

| SMILES | activity relative to free amine Compound 6 (more active) (HCT116 [1]) | IC50 (HCT116 [1]; read-out: IC50 HCT116) | potency relative to vinblastine (less potent / reduced activity) (HCT116 [1]) | IC50 (A549-T24) | IC50 (A549) | IC50 (L1210 [2]) | IC50 (L1210 [3]) | IC50 (HCT116 [4]) | differential in activity between sensitive and resistant HCT116 cell lines (HCT116/VM46; HCT116/VM46 vs HCT116) | IC50 (HCT116/VM46; read-out: IC50 HCT116/VM46) | IC50 (cells) | IC50 (L1210 [3]; Table 6) | % displacement (Tubulin) | IC50 (HCT116/VM46; [5]) | IC50 (HCT116/VM46; [6]) | IC50 (L1210 [3]; Table 8, 10′-F compounds) | other results |
| --- | --- | --- | --- | --- | --- | --- | --- | --- | --- | --- | --- | --- | --- | --- | --- | --- | --- |
| CCC1(NC=O)CC2CN(CCc3c([nH]c4ccccc34)C(C(=O)OC)(c3cc4c(cc3OC)N(C)C3C(O)(C(=O)OC)C(OC(C)=O)C5(CC)C=CCN6CCC43C65)C2)C1 (stereo not drawn) [Compound 9] | 10 fold | 0.6 nM | approximately 10 fold | 0.7 nM | 0.7 nM | 65 nM | 0.5 nM | 85 nM | ~80 fold | 7.5 nM | – | – | – | – | – | – | – |
| CC[C@]1(NC(C)=O)C[C@H]2CN(CCc3c([nH]c4ccccc34)[C@@](C(=O)OC)(c3cc4c(cc3OC)N(C)[C@H]3[C@@](O)(C(=O)OC)[C@H](OC(C)=O)[C@]5(CC)C=CCN6CC[C@]43[C@@H]65)C2)C1 [Compound 10, 20′-Acetamidovinblastine] | 10 fold | – | approximately 10 fold | – | – | 65 nM | – | 90 nM | ~80 fold | – | – | – | – | – | – | – | – |
| CC[C@]1(NC(=O)C(F)(F)F)C[C@H]2CN(CCc3c([nH]c4ccccc34)[C@@](C(=O)OC)(c3cc4c(cc3OC)N(C)[C@H]3[C@@](O)(C(=O)OC)[C@H](OC(C)=O)[C@]5(CC)C=CCN6CC[C@]43[C@@H]65)C2)C1 [Compound 11] | – | – | – | – | – | 660 nM | – | 690 nM | – | – | – | – | – | – | – | – | – |
| CCC1(NC(=O)c2ccc3c(c2)CCCO3)CC2CN(CCc3c([nH]c4ccccc34)C(C(=O)OC)(c3cc4c(cc3OC)N(C)C3C(O)(C(=O)OC)C(OC(C)=O)C5(CC)C=CCN6CCC43C65)C2)C1 (stereo not drawn) [Compound 173] | – | 0.5 nM | – | 0.8 nM | 1.4 nM | – | 0.4 nM | – | 3.8 fold | 1.8 nM | 0.4 to 0.5 nM | 0.4 nM | 98 ± 7% | 1.8 nM | 1.8 nM | – | IC50 (HCT116 [1]; Table 6, read-out: IC50 HCT116): 0.5 nM; IC50 (HCT116 [1]; Table 9, read-out: IC50 (nM, HCT116)): 0.5 nM; IC50 (HCT116 [1]; Table 10, read-out: IC50 (nM), HCT116): 0.5 nM; IC50 (HCT116/VM46; read-out: IC50 against resistant HCT116 cell line): 1.8 nM |
| CC[C@]1(NC(=O)c2ccc(OC)c(OC)c2)C[C@H]2CN(CCc3c([nH]c4ccc(F)cc34)[C@@](C(=O)OC)(c3cc4c(cc3OC)N(C)[C@H]3[C@@](O)(C(=O)OC)[C@H](OC(C)=O)[C@]5(CC)C=CCN6CC[C@]43[C@@H]65)C2)C1 [Compound 190] | – | – | – | – | – | – | – | – | – | – | 0.06 to 0.08 nM | – | – | – | – | 0.06 nM | IC50 (HCT116 [1]; Table 8, 10′-F compounds, read-out: IC50 HCT116): 0.08 nM |
| CC[C@]1(O)C[C@@H]2CN(CCc3c([nH]c4ccccc34)[C@@](C(=O)OC)(c3cc4c(cc3OC)N(C)[C@H]3[C@@](O)(C(=O)OC)[C@H](OC(C)=O)[C@]5(CC)C=CCN6CC[C@]43[C@@H]65)C2)C1 [Vinblastine (1), Vinblastine, reference compound] | – | – | – | 6.7 nM | 7.7 nM | – | 6 nM | – | – | 600 nM | – | 6 nM | 61 ± 13% | 600 nM | 600 nM | 6 nM | % Pgp ATPase activity (Pgp): 87%; Papp, B to A (Caco-2 cells): 38.2 ± 2.0 x 10^−6 cm/s; IC50 (L1210 [3]; Table 1): 6 nM; IC50 (L1210 [3]; Table 2): 6 nM; IC50 (L1210 [3]; Table 3): 6 nM; IC50 (L1210 [3]; Table 4): 6 nM; IC50 (L1210 [3]; Table 5): 6 nM; IC50 (L1210 [3]; Table 7, C20′ sulfonamides): 6 nM; percent (%) displacement of tubulin-bound BODIPY-vinblastine (Tubulin; FIG. 2, competitive ligand 18 μM): 50%; MIC, HCT116/VM46 cells (HCT116/VM46): 0.6 µM (≈ 0.487 µg/mL); differential in activity between sensitive and resistant HCT116 cell lines (HCT116/VM46): 88 fold; IC50 (HCT116/VM46; Table 1, read-out: IC50 HCT116/VM46): 600 nM; IC50 (HCT116/VM46; Table 2, read-out: IC50 HCT116/VM46): 600 nM; IC50 (HCT116/VM46; Table 3, read-out: IC50 HCT116/VM46): 600 nM; IC50 (HCT116/VM46; Table 4, read-out: IC50 HCT116/VM46): 600 nM; IC50 (HCT116/VM46; Table 5, read-out: IC50 HCT116/VM46): 600 nM; IC50 (HCT116/VM46; Table 7, C20′ sulfonamides, read-out: IC50 HCT116/VM46): 600 nM; IC50 (HCT116/VM46; Table 8, 10′-F compounds, read-out: IC50 HCT116/VM46): 600 nM; IC50 (HCT116/VM46; table in Background, C20′ substituent X, read-out: IC50, HCT116/VM46): 600 nM |
